Patent US12275731B2, “Azaindole inhibitors of wild-type and mutant forms of LRRK2” (DANA-FARBER CANCER INSTITUTE, INC., priority 2018, dated 2025)

What was measured:
Test in all cases: KinomeScan profiling
Format in all cases: binding
[1] = biological target: T1, EPHA1 (Homo sapiens, UniProt P21709); details: EPHA1, 1 μM; read-out: % control
T1 sequence (P21709 26-976): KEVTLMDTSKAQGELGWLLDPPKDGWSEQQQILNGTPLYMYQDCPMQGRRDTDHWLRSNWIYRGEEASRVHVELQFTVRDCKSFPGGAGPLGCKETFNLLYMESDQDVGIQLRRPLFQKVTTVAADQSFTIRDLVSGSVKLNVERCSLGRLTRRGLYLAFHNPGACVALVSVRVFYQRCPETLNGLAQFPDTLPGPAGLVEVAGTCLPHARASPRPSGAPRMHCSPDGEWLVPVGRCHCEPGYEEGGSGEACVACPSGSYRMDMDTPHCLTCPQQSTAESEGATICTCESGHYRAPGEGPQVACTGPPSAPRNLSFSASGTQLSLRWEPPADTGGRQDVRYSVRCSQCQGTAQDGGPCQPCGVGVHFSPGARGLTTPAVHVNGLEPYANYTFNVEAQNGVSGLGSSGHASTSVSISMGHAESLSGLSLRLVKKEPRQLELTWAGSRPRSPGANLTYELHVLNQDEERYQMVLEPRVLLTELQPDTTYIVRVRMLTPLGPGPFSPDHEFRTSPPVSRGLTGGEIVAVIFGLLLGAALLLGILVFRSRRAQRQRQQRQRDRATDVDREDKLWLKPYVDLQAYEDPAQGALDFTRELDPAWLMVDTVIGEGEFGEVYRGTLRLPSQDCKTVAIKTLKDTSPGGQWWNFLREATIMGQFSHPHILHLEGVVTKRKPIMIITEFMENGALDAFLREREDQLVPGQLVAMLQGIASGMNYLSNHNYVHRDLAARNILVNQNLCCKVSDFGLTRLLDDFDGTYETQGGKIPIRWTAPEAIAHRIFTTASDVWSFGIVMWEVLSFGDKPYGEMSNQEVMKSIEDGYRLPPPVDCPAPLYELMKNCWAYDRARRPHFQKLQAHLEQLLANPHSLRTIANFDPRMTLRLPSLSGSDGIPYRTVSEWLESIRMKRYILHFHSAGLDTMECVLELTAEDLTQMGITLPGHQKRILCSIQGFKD
How it was run: (§1)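 Normalised RLU (% control; DMSO 100%, positive control 0%) was measured for compounds dosed at 1 μM over 468 kinases, active cut-off <35%.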

[2] = biological target: T2, GRK2 (Homo sapiens, UniProt P25098); details: GRK2, 1 μM; read-out: % control
T2 sequence (P25098 1-689): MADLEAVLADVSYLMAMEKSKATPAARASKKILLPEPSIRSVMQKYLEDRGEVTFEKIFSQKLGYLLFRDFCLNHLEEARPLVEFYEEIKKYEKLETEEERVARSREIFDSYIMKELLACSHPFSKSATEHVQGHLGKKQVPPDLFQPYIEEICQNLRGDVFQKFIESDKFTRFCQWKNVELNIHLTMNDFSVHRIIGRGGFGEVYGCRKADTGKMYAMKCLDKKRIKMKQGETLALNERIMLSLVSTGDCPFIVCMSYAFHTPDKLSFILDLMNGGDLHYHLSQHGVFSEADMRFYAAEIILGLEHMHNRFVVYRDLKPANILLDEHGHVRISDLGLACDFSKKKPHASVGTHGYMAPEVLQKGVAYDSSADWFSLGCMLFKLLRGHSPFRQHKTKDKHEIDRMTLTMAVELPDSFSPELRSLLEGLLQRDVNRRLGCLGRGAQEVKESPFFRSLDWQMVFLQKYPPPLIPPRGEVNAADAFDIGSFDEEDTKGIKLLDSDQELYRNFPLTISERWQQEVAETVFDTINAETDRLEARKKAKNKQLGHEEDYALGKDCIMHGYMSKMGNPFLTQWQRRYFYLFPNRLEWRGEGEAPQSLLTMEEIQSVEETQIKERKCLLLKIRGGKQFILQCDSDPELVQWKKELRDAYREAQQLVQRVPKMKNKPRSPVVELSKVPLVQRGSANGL
How it was run: as §1

[3] = biological target: T3, MEK6 (Homo sapiens, UniProt P52564); details: MEK6, 1 μM; read-out: % control
T3 sequence (P52564 1-334): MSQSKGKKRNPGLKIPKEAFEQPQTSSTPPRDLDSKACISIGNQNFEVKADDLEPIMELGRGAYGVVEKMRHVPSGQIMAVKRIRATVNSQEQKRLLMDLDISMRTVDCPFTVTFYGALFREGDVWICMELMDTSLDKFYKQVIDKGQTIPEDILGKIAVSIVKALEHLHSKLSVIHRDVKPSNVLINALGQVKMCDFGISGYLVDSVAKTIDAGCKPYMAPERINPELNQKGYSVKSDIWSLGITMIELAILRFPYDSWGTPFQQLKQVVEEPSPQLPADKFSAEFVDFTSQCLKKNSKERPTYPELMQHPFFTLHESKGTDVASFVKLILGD
How it was run: as §1

[4] = biological target: PLK1 (Homo sapiens, UniProt P53350); details: PLK1, 1 μM; read-out: % control
Sequence of PLK1 (P53350 whole entry): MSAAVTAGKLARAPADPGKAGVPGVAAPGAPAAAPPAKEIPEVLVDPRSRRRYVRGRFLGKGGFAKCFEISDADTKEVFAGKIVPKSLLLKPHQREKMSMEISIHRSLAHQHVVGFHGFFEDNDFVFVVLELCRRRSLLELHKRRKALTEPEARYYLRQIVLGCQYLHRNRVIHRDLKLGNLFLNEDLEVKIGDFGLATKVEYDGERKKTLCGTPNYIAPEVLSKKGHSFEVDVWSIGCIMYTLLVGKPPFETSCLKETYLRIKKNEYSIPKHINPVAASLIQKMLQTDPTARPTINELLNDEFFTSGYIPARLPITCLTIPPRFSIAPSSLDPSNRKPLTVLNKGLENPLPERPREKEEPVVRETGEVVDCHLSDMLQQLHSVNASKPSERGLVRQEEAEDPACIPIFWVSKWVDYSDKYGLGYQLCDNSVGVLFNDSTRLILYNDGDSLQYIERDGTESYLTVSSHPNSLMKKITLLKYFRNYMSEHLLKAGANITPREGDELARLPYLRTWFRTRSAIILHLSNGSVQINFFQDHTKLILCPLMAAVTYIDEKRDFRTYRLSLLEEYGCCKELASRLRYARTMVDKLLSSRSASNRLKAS
How it was run: as §1

[5] = biological target: T4, CHEK1 (Homo sapiens, UniProt O14757); details: CHEK1, 1 μM; read-out: % control
T4 sequence (O14757 1-476): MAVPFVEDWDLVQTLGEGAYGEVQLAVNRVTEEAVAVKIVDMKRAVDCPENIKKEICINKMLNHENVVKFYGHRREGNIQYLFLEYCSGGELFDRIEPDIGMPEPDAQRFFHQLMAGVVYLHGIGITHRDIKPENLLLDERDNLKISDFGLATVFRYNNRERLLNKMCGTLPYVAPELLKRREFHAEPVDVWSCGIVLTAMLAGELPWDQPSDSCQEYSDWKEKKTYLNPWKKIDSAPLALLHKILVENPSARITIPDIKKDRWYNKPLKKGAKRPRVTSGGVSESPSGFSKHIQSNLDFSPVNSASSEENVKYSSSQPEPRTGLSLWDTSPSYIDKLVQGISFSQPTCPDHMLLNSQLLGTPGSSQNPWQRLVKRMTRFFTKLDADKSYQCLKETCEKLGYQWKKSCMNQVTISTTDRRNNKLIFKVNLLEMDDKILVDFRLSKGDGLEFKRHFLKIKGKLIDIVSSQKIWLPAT
How it was run: as §1

[6] = biological target: T5, ABL1(F317I)-phoshorylated (Homo sapiens, UniProt P00519, F317I); details: read-out: % control
T5 construct: purchased KinomeScan®
T5 sequence (P00519 whole entry F317I): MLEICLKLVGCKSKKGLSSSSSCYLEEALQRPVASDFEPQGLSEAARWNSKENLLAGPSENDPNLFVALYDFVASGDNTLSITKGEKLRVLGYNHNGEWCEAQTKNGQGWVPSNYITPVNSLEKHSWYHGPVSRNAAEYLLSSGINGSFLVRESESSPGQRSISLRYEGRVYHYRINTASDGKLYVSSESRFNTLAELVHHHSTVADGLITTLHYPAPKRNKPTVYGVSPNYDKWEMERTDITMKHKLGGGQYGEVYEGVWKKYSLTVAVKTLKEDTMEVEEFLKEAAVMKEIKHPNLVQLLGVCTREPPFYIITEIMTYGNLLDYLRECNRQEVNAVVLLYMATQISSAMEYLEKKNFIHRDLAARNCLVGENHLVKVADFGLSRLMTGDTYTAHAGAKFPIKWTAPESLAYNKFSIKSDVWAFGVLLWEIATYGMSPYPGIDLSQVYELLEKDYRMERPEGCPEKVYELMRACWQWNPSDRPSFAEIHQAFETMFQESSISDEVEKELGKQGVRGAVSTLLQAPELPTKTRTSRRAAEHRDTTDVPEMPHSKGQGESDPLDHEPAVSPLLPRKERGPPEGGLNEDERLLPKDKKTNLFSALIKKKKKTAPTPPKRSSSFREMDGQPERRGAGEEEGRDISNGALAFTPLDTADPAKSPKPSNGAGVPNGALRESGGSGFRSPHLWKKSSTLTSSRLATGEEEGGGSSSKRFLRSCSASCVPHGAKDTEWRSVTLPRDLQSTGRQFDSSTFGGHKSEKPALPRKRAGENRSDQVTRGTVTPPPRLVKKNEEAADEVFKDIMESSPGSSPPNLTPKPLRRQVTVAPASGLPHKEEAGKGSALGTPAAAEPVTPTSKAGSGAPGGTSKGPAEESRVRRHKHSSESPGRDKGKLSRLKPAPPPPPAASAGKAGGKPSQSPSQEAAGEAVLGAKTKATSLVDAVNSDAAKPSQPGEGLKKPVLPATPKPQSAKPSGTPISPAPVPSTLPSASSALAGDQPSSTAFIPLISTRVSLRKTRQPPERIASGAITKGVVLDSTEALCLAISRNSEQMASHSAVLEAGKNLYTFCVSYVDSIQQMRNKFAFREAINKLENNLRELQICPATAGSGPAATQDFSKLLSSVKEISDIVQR
How it was run: as §1

SMILES	remaining binding at 1 µM [1]	remaining binding at 1 µM [2]	remaining binding at 1 µM [3]	remaining binding at 1 µM [4]	remaining binding at 1 µM [5]	remaining binding at 1 µM [6]
O=C(c1ccc(-c2cnc3[nH]cc(Cl)c3c2NC2CCCC2)cc1)N1CCC(N2CCOCC2)CC1 [Compound 101, (4-(3-chloro-4-(cyclopentylamino)-1H-pyrrolo[2,3-b]pyridin-5-yl)phenyl)(4-morpholinopiperidin-1-yl)methanone]	76%	100%	95%	98%	83%	10%
CNc1c(-c2cnn([C@H]3CCN(C(C)=O)C[C@@H]3F)c2)cnc2[nH]cc(Cl)c12 [Compound 77, 1-((3S,4S)-4-(4-(3-chloro-4-(methylamino)-1H-pyrrolo[2,3-b]pyridin-5-yl)-1H-pyrazol-1-yl)-3-fluoropiperidin-1-yl)ethan-1-one]	83%	93%	60%	65%	89%	81%
CNc1c(-c2ccc(C(=O)N3CCC(N4CCOCC4)CC3)cc2)cnc2[nH]cc(Cl)c12 [Compound 96, (4-(3-chloro-4-(methylamino)-1H-pyrrolo[2,3-b]pyridin-5-yl)phenyl)(4-morpholinopiperidin-1-yl)methanone]	81%	94%	16%	64%	84%	100%
